# Results published in ChEMBL document CHEMBL3885861, “Open TG-GATES”.
# Species on record: Rattus norvegicus
# Assay: Open TG-GATES - Regimen: Single
# Assay type: toxicity, organism-based, Sprague-Dawley
# Design: regimen Single, gender Male, age 6 weeks
# Settings: in vivo, po, route gavage; for APTT / Bas / Eos / Fbg / Hb / Ht / Lym / MCH / MCHC / MCV / Mono / Neu / PT / Plat / RBC / Ret / WBC: tissue Blood; for KIDNEY_L / KIDNEY_R / KIDNEY_TOTAL: tissue Kidney; for LIVER: tissue Liver; for ALP / ALT / AST / BUN / CRE / DBIL / GLC / K / Na / PL / RALB / TBIL / TC / TG / TP / gamma-GTP: tissue Plasma
# [1] = 75 mg/kg, 3 h, dose level Middle
# [2] = 75 mg/kg, 6 h, dose level Middle
# [3] = 75 mg/kg, 9 h, dose level Middle
# [4] = 75 mg/kg, 24 h, dose level Middle
# [5] = 250 mg/kg, 3 h, dose level High
# [6] = 250 mg/kg, 6 h, dose level High
# [7] = 250 mg/kg, 9 h, dose level High
# [8] = 250 mg/kg, 24 h, dose level High
structure (smiles),measurement,setting,value
CN1C(=O)CN=C(c2ccccc2)c2cc(Cl)ccc21 [DIAZEPAM],TERMINAL_BW,[1],217.1 g
same,APTT,[1],15.6 s
same,Bas,[1],0%
same,Eos,[1],1.2%
same,Fbg,[1],212.4 mg/dL
same,Hb,[1],13.8 g/dL
same,Ht,[1],41.7%
same,Lym,[1],77.2%
same,MCH,[1],22.1 pg
same,MCHC,[1],33.1%
same,MCV,[1],66.8 fL
same,Mono,[1],6.2%
same,Neu,[1],15.6%
same,PT,[1],12.7 s
same,Plat,[1],103.8 x10_4/uL
same,RBC,[1],624.4 x10_4/ul
same,Ret,[1],8.2%
same,WBC,[1],74.8 x10_2/uL
same,KIDNEY_L,[1],1 g
same,KIDNEY_R,[1],1 g
same,KIDNEY_TOTAL,[1],2 g
same,LIVER,[1],10.1 g
same,ALP,[1],916 IU/L
same,ALT,[1],31.2 IU/L
same,AST,[1],62.6 IU/L
same,BUN,[1],12 mg/dL
same,CRE,[1],0.5 mg/dL
same,DBIL,[1],0.028 mg/dL
same,GLC,[1],187.6 mg/dL
same,K,[1],5.1 meq/L
same,Na,[1],139.6 meq/L
same,PL,[1],133 mg/dL
same,RALB,[1],3.9 g/dL
same,TBIL,[1],0.4 mg/dL
same,TC,[1],73 mg/dL
same,TG,[1],46.8 mg/dL
same,TP,[1],5.5 g/dL
same,gamma-GTP,[1],1.6 IU/L
same,TERMINAL_BW,[2],213.3 g
same,APTT,[2],16.5 s
same,Bas,[2],0%
same,Eos,[2],0.8%
same,Fbg,[2],222.8 mg/dL
same,Hb,[2],13.8 g/dL
same,Ht,[2],41.9%
same,Lym,[2],79.2%
same,MCH,[2],22.3 pg
same,MCHC,[2],33.1%
same,MCV,[2],67.3 fL
same,Mono,[2],7.2%
same,Neu,[2],13.2%
same,PT,[2],12.1 s
same,Plat,[2],105.5 x10_4/uL
same,RBC,[2],621.2 x10_4/ul
same,Ret,[2],8.1%
same,WBC,[2],115.9 x10_2/uL
same,KIDNEY_L,[2],1 g
same,KIDNEY_R,[2],1 g
same,KIDNEY_TOTAL,[2],2 g
same,LIVER,[2],10.3 g
same,ALP,[2],899 IU/L
same,ALT,[2],30.4 IU/L
same,AST,[2],59 IU/L
same,BUN,[2],13 mg/dL
same,CRE,[2],0.5 mg/dL
same,DBIL,[2],0.02 mg/dL
same,GLC,[2],198.2 mg/dL
same,K,[2],5.5 meq/L
same,Na,[2],139.6 meq/L
same,PL,[2],147.8 mg/dL
same,RALB,[2],3.8 g/dL
same,TBIL,[2],0.4 mg/dL
same,TC,[2],77.4 mg/dL
same,TG,[2],78.2 mg/dL
same,TP,[2],5.8 g/dL
same,gamma-GTP,[2],1.6 IU/L
same,TERMINAL_BW,[3],215.6 g
same,APTT,[3],16.4 s
same,Bas,[3],0%
same,Eos,[3],0.8%
same,Fbg,[3],213.8 mg/dL
same,Hb,[3],13.9 g/dL
same,Ht,[3],41.8%
same,Lym,[3],80.2%
same,MCH,[3],21.1 pg
same,MCHC,[3],33.1%
same,MCV,[3],63.8 fL
same,Mono,[3],5.4%
same,Neu,[3],13.8%
same,PT,[3],12.4 s
same,Plat,[3],101.8 x10_4/uL
same,RBC,[3],655.6 x10_4/ul
same,Ret,[3],8.2%
same,WBC,[3],90.1 x10_2/uL
same,KIDNEY_L,[3],1 g
same,KIDNEY_R,[3],1 g
same,KIDNEY_TOTAL,[3],1.9 g
same,LIVER,[3],9.7 g
same,ALP,[3],771 IU/L
same,ALT,[3],33 IU/L
same,AST,[3],62.8 IU/L
same,BUN,[3],14.2 mg/dL
same,CRE,[3],0.6 mg/dL
same,DBIL,[3],0.048 mg/dL
same,GLC,[3],208 mg/dL
same,K,[3],4.5 meq/L
same,Na,[3],140 meq/L
same,PL,[3],143.8 mg/dL
same,RALB,[3],3.8 g/dL
same,TBIL,[3],0.4 mg/dL
same,TC,[3],71 mg/dL
same,TG,[3],80.6 mg/dL
same,TP,[3],5.7 g/dL
same,gamma-GTP,[3],1.4 IU/L
same,TERMINAL_BW,[4],230.6 g
same,APTT,[4],16.2 s
same,Bas,[4],0%
same,Eos,[4],0.8%
same,Fbg,[4],208.2 mg/dL
same,Hb,[4],13.6 g/dL
same,Ht,[4],40.9%
same,Lym,[4],79.4%
same,MCH,[4],21.6 pg
same,MCHC,[4],33.2%
same,MCV,[4],65.1 fL
same,Mono,[4],5.6%
same,Neu,[4],14%
same,PT,[4],12.3 s
same,Plat,[4],103.8 x10_4/uL
same,RBC,[4],628.4 x10_4/ul
same,Ret,[4],8%
same,WBC,[4],115 x10_2/uL
same,KIDNEY_L,[4],1 g
same,KIDNEY_R,[4],1.1 g
same,KIDNEY_TOTAL,[4],2.1 g
same,LIVER,[4],11.2 g
same,ALP,[4],921 IU/L
same,ALT,[4],37.2 IU/L
same,AST,[4],64 IU/L
same,BUN,[4],17.8 mg/dL
same,CRE,[4],0.6 mg/dL
same,DBIL,[4],0.012 mg/dL
same,GLC,[4],199 mg/dL
same,K,[4],5.1 meq/L
same,Na,[4],139.4 meq/L
same,PL,[4],141.6 mg/dL
same,RALB,[4],4 g/dL
same,TBIL,[4],0.4 mg/dL
same,TC,[4],75.6 mg/dL
same,TG,[4],97.4 mg/dL
same,TP,[4],5.8 g/dL
same,gamma-GTP,[4],1.2 IU/L
same,TERMINAL_BW,[5],215.9 g
same,APTT,[5],16.1 s
same,Bas,[5],0%
same,Eos,[5],1%
same,Fbg,[5],213.4 mg/dL
same,Hb,[5],13.6 g/dL
same,Ht,[5],41%
same,Lym,[5],75.8%
same,MCH,[5],22.1 pg
same,MCHC,[5],33.1%
same,MCV,[5],66.7 fL
same,Mono,[5],5.6%
same,Neu,[5],17.6%
same,PT,[5],12.7 s
same,Plat,[5],109.5 x10_4/uL
same,RBC,[5],615 x10_4/ul
same,Ret,[5],8.8%
same,WBC,[5],72.4 x10_2/uL
same,KIDNEY_L,[5],1 g
same,KIDNEY_R,[5],1 g
same,KIDNEY_TOTAL,[5],2 g
same,LIVER,[5],10.3 g
same,ALP,[5],734 IU/L
same,ALT,[5],34.2 IU/L
same,AST,[5],67.4 IU/L
same,BUN,[5],12.2 mg/dL
same,CRE,[5],0.5 mg/dL
same,DBIL,[5],0.028 mg/dL
same,GLC,[5],196.2 mg/dL
same,K,[5],4.7 meq/L
same,Na,[5],140 meq/L
same,PL,[5],144.4 mg/dL
same,RALB,[5],3.7 g/dL
same,TBIL,[5],0.4 mg/dL
same,TC,[5],79.4 mg/dL
same,TG,[5],64.2 mg/dL
same,TP,[5],5.7 g/dL
same,gamma-GTP,[5],1.4 IU/L
same,TERMINAL_BW,[6],216.7 g
same,APTT,[6],16.1 s
same,Bas,[6],0%
same,Eos,[6],0.8%
same,Fbg,[6],240.4 mg/dL
same,Hb,[6],14.3 g/dL
same,Ht,[6],43.4%
same,Lym,[6],77.2%
same,MCH,[6],21.7 pg
same,MCHC,[6],32.9%
same,MCV,[6],65.9 fL
same,Mono,[6],6.4%
same,Neu,[6],16%
same,PT,[6],12.3 s
same,Plat,[6],120.4 x10_4/uL
same,RBC,[6],659.8 x10_4/ul
same,Ret,[6],8.4%
same,WBC,[6],85.8 x10_2/uL
same,KIDNEY_L,[6],1 g
same,KIDNEY_R,[6],1 g
same,KIDNEY_TOTAL,[6],2 g
same,LIVER,[6],10.3 g
same,ALP,[6],823.6 IU/L
same,ALT,[6],27.8 IU/L
same,AST,[6],68 IU/L
same,BUN,[6],15.8 mg/dL
same,CRE,[6],0.6 mg/dL
same,DBIL,[6],0.008 mg/dL
same,GLC,[6],210.6 mg/dL
same,K,[6],5.6 meq/L
same,Na,[6],141.6 meq/L
same,PL,[6],161 mg/dL
same,RALB,[6],4.1 g/dL
same,TBIL,[6],0.5 mg/dL
same,TC,[6],85.6 mg/dL
same,TG,[6],74.4 mg/dL
same,TP,[6],6.2 g/dL
same,gamma-GTP,[6],1.8 IU/L
same,TERMINAL_BW,[7],217 g
same,APTT,[7],16.2 s
same,Bas,[7],0%
same,Eos,[7],1%
same,Fbg,[7],240.5 mg/dL
same,Hb,[7],14.2 g/dL
same,Ht,[7],43%
same,Lym,[7],80.5%
same,MCH,[7],21.8 pg
same,MCHC,[7],33%
same,MCV,[7],66 fL
same,Mono,[7],6.2%
same,Neu,[7],12%
same,PT,[7],12.2 s
same,Plat,[7],118.3 x10_4/uL
same,RBC,[7],652.2 x10_4/ul
same,Ret,[7],8.2%
same,WBC,[7],104.3 x10_2/uL
same,KIDNEY_L,[7],1 g
same,KIDNEY_R,[7],1 g
same,KIDNEY_TOTAL,[7],2 g
same,LIVER,[7],10 g
same,ALP,[7],725 IU/L
same,ALT,[7],25.8 IU/L
same,AST,[7],67 IU/L
same,BUN,[7],16.5 mg/dL
same,CRE,[7],0.6 mg/dL
same,DBIL,[7],0.0325 mg/dL
same,GLC,[7],214.8 mg/dL
same,K,[7],4.8 meq/L
same,Na,[7],141.8 meq/L
same,PL,[7],147.5 mg/dL
same,RALB,[7],3.8 g/dL
same,TBIL,[7],0.4 mg/dL
same,TC,[7],84.5 mg/dL
same,TG,[7],70.8 mg/dL
same,TP,[7],5.8 g/dL
same,gamma-GTP,[7],1.2 IU/L
same,TERMINAL_BW,[8],235.1 g
same,APTT,[8],15.6 s
same,Bas,[8],0%
same,Eos,[8],0.8%
same,Fbg,[8],211 mg/dL
same,Hb,[8],13.5 g/dL
same,Ht,[8],40.5%
same,Lym,[8],75%
same,MCH,[8],21.9 pg
same,MCHC,[8],33.4%
same,MCV,[8],65.4 fL
same,Mono,[8],7.6%
same,Neu,[8],16.6%
same,PT,[8],12.2 s
same,Plat,[8],103.7 x10_4/uL
same,RBC,[8],620.4 x10_4/ul
same,Ret,[8],8.3%
same,WBC,[8],133.5 x10_2/uL
same,KIDNEY_L,[8],1.1 g
same,KIDNEY_R,[8],1.1 g
same,KIDNEY_TOTAL,[8],2.2 g
same,LIVER,[8],12 g
same,ALP,[8],1023.4 IU/L
same,ALT,[8],37 IU/L
same,AST,[8],57.4 IU/L
same,BUN,[8],14.4 mg/dL
same,CRE,[8],0.5 mg/dL
same,DBIL,[8],0.006 mg/dL
same,GLC,[8],201.6 mg/dL
same,K,[8],5.1 meq/L
same,Na,[8],140 meq/L
same,PL,[8],167.4 mg/dL
same,RALB,[8],4 g/dL
same,TBIL,[8],0.4 mg/dL
same,TC,[8],91.6 mg/dL
same,TG,[8],105.8 mg/dL
same,TP,[8],5.9 g/dL
same,gamma-GTP,[8],1.4 IU/L
